Measurements published in publication PMC2674504, “Foam nest components of the túngara frog: a cocktail of proteins conferring physical and biological resilience” (Proceedings of the Royal Society B: Biological Sciences, 2009).
Where a SMILES comes first, the peptide text is derived from it. The star is where a group is joined. AMC = Cc1cc(=O)oc2cc(N*)ccc12; Cbz = O=C(OCc1ccccc1)*

Legend:
[1] = target: T1, papain (Carica papaya, UniProt P00784); assay: fluorogenic proteolysis assay (ex […] nm, em […] nm); type: biochemical; conditions: 0.1 M acetate pH 5.0, 10 mM dithiothreitol, 2 mM EDTA, 30 °C; mere turnover
T1 construct: commercial enzyme from papaya latex (Sigma)
T1 sequence (P00784 134-345): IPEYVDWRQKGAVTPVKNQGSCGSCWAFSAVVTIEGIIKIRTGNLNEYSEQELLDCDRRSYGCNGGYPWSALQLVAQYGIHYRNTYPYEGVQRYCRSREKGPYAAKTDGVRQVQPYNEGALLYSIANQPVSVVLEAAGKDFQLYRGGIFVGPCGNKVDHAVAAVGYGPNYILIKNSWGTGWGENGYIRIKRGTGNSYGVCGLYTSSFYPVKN

[2] = target: T2, Rsn-4 (Engystomops pustulosus, UniProt B5DCK4); assay: haemagglutination inhibition (human erythrocytes); type: cell-based; conditions: 20 mM sugar; 10 mM HEPES, 150 mM NaCl, 2 mM CaCl2; room temperature; protein refolded in buffer with 20 mM galactose
T2 construct: dimer or higher order
T2 sequence (B5DCK4 20-193): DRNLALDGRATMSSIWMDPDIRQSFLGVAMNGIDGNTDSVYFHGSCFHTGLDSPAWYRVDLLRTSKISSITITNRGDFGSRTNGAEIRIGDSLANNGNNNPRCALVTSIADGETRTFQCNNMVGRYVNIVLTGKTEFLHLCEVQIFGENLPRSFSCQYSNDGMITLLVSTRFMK

[3] = target: T2, Rsn-4; assay: haemagglutination inhibition (human erythrocytes); lactose-agarose affinity chromatography eluted with […] lactose; type: binding; conditions: 20 mM sugar; 10 mM HEPES, 150 mM NaCl, 2 mM CaCl2; room temperature

Cc1cc(=O)oc2cc(NC(=O)[C@H](CCCNC(=N)N)NC(=O)[C@H](Cc3ccccc3)NC(=O)OCc3ccccc3)ccc12 [Z-Phe-Arg 7-amido-4-methylcoumarin] (Cbz-Phe-Arg-{AMC})
fluorogenic proteolysis assay (ex 370 nm, em 470 nm) [1]: papain) was investigated using fluorogenic or chromogenic substrates, Z-Phe-Arg 7-amido-4-methylcoumarin

OC[C@H]1OC(O)[C@H](O)[C@@H](O)[C@H]1O (stereo partly drawn) [galactose]
haemagglutination inhibition (human erythrocytes) [2]: agglutination by Rsn-4 was unaffected by fucose but completely inhibited by galactose

OC[C@H]1O[C@@H](O[C@H]2[C@H](O)[C@@H](O)C(O)O[C@@H]2CO)[C@H](O)[C@@H](O)[C@H]1O (stereo partly drawn) [lactose]
haemagglutination inhibition (human erythrocytes); lactose-agarose affinity chro [3]: Rsn-4 could be inhibited with lactose and galactose
